Experimental findings from article PMC13503962, “Uncovering the genetic basis of fruit volatiles in Fragaria vesca through GWAS reveals FvJMT2 as a methyl benzoate biosynthesis gene with bioactivity against Drosophila suzukii” (Horticulture Research, 2026) are described below.

The subject of this experiment is T1, FvJMT2 (FvJMT2^C275, functional full-length allele).
T1 construct: full-length CDS (1173 nt, 390 residues) in pQE80L, N-terminal 6xHis tag, E. coli XL1-Blue, Ni-NTA purified; tag removal not mentioned
In words: radiochemical methyl transfer from […]-SAM, hexane extraction, scintillation counting; nonlinear Michaelis-Menten fit. It counts as biochemical, Fragaria vesca. The settings on record: co-substrate SAM (saturating); 50 mM Tris-HCl pH 7.5, 2.5 mM MgCl2, 5 mM DTT, 2.5 mM EDTA, 30 °C; read-out: Kinetic parameters / Km /.
On to `CC/C=C\C[C@H]1C(=O)CC[C@@H]1CC(=O)O` [Jasmonic acid], for which the Km was 174 µM.
For `O=C(O)c1ccccc1O` [Salicylic acid] the value was 690 µM; for `O=C(O)c1ccccc1` [Benzoic acid], 577 µM; for `O=C(O)/C=C/c1ccccc1` [Cinnamic acid], 597 µM.
